Experimental data reported in patent US20250236611A1, “PYRAZOLE COMPOUNDS AND USES THEREOF” (ALCON INC., priority 2021, published 2025).

Columns and labels:
Type in all cases: biochemical
Conditions in all cases: 10 nM JAK enzyme, 800 nM Abl peptide, room temperature 75 min
TYK2 = TYK2 (Homo sapiens, UniProt P29597); assay: JAK assay (KINASE-GLO luminescent kinase assay), TYK2
Experimental: All compounds were initially prepared as 10 mM stocks in anhydrous dimethylsulfoxide (DMSO). […] Test compounds were then serially diluted 1:5 in DMSO for an 11-point concentration response and further diluted in the assay buffer bringing all compound concentrations to a final range of 100 μM to 10 pM in 2.5% DMSO. The assay was performed in white 96-well, flat-bottom, half-area, non-binding assay plate (Corning #3642) in assay buffer consisting of 20 mM HEPES (pH 7.5), 10 mM MgCl2*6H2O, 100 μM sodium orthovanadate, 0.05% CHAPS and 0.1% bovine serum albumin. A 10 μL aliquot of compound from each well of the intermediate dilution plate and 20 μL of a 2×JAK substrate/enzyme solution containing acceptor substrate (800 nM Abl peptide), JAK enzyme (10 nM JAK1, JAK2, JAK3, or TYK2), and 1,4-Dithiothreitol (DTT, 2 μM) were added to all wells. The reaction was initiated by the addition of 10 μL of 4× stock solution ATP (2 μM). Reactions were thoroughly mixed manually, covered and allowed to incubate at room temperature for 75 min. Protein kinase activity was quantitated using Promega's KINASE-GLO™ luminescent Kinase Assay Kit according to the manufacturer's directions. ATP concentrations remaining in Test wells following the termination of the enzymatic reaction were compared against control wells containing equivalent amounts of DMSO containing no inhibitor (CTRL). […] Percent of Control (POC) values were determined for each concentration of compound tested according to the equation:
(§1) [formula] • IC50 values were calculated using the following 4-parameter logistic curve-fitting algorithm:
(§2) [formula] • IC50 values were converted to Ki values using the Cheng-Prusoff Equation: […]

JAK2 = JAK2 (Homo sapiens, UniProt O60674); assay: JAK assay (KINASE-GLO luminescent kinase assay), JAK2
Experimental: (§3) All compounds were initially prepared as 10 mM stocks in anhydrous dimethylsulfoxide (DMSO). A 20 μL aliquot of the 10 mM solutions was transferred to individual wells in column 1 of a 96-well polypropylene microtiter plate (Corning #3363) and diluted with DMSO to give a final compound concentration of 4 mM. Test compounds were then serially diluted 1:5 in DMSO for an 11-point concentration response and further diluted in the assay buffer bringing all compound concentrations to a final range of 100 μM to 10 pM in 2.5% DMSO. The assay was performed in white 96-well, flat-bottom, half-area, non-binding assay plate (Corning #3642) in assay buffer consisting of 20 mM HEPES (pH 7.5), 10 mM MgCl2*6H2O, 100 μM sodium orthovanadate, 0.05% CHAPS and 0.1% bovine serum albumin. A 10 μL aliquot of compound from each well of the intermediate dilution plate and 20 μL of a 2×JAK substrate/enzyme solution containing acceptor substrate (800 nM Abl peptide), JAK enzyme (10 nM JAK1, JAK2, JAK3, or TYK2), and 1,4-Dithiothreitol (DTT, 2 μM) were added to all wells. The reaction was initiated by the addition of 10 μL of 4× stock solution ATP (2 μM). Reactions were thoroughly mixed manually, covered and allowed to incubate at room temperature for 75 min. Protein kinase activity was quantitated using Promega's KINASE-GLO™ luminescent Kinase Assay Kit according to the manufacturer's directions. ATP concentrations remaining in Test wells following the termination of the enzymatic reaction were compared against control wells containing equivalent amounts of DMSO containing no inhibitor (CTRL). […] Percent of Control (POC) values were determined for each concentration of compound tested according to the equation:
as §1, §2

JAK3 = target: T1, JAK3 (Homo sapiens, UniProt P52333); assay: JAK assay (KINASE-GLO luminescent kinase assay), JAK3
T1 sequence (P52333 1-1124): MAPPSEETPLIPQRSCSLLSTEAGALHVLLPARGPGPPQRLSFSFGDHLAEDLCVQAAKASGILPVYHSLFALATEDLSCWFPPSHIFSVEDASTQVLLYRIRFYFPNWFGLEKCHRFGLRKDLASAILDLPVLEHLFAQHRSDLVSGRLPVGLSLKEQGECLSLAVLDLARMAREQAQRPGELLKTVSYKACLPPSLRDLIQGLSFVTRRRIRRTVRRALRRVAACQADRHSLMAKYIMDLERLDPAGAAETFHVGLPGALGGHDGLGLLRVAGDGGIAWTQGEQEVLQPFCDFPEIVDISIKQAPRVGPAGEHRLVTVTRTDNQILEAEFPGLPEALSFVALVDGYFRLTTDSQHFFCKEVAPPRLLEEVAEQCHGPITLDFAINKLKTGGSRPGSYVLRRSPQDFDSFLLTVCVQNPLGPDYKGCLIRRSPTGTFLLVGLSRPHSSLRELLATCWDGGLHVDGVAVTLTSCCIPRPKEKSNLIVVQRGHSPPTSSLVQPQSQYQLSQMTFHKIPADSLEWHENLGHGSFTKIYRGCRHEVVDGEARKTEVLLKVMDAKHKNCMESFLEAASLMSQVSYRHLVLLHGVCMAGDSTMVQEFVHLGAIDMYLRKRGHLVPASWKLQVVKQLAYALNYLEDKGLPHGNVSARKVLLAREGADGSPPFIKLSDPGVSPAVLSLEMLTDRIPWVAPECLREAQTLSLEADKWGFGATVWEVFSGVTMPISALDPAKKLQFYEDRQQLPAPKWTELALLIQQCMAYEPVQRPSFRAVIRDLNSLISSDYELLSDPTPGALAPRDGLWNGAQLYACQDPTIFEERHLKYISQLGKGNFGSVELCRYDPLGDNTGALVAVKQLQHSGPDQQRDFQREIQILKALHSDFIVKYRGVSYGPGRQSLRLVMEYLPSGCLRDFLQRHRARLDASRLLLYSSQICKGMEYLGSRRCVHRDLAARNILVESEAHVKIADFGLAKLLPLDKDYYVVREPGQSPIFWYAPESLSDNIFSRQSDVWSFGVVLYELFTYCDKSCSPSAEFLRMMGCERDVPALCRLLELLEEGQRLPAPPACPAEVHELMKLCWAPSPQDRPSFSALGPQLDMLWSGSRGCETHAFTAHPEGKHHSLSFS
Experimental: as §3, §1, §2

JAK1 = JAK1 (Homo sapiens, UniProt P23458); assay: JAK assay (KINASE-GLO luminescent kinase assay), JAK1
Experimental: as §3, §1, §2

Chain of JAK2 (O60674 whole entry): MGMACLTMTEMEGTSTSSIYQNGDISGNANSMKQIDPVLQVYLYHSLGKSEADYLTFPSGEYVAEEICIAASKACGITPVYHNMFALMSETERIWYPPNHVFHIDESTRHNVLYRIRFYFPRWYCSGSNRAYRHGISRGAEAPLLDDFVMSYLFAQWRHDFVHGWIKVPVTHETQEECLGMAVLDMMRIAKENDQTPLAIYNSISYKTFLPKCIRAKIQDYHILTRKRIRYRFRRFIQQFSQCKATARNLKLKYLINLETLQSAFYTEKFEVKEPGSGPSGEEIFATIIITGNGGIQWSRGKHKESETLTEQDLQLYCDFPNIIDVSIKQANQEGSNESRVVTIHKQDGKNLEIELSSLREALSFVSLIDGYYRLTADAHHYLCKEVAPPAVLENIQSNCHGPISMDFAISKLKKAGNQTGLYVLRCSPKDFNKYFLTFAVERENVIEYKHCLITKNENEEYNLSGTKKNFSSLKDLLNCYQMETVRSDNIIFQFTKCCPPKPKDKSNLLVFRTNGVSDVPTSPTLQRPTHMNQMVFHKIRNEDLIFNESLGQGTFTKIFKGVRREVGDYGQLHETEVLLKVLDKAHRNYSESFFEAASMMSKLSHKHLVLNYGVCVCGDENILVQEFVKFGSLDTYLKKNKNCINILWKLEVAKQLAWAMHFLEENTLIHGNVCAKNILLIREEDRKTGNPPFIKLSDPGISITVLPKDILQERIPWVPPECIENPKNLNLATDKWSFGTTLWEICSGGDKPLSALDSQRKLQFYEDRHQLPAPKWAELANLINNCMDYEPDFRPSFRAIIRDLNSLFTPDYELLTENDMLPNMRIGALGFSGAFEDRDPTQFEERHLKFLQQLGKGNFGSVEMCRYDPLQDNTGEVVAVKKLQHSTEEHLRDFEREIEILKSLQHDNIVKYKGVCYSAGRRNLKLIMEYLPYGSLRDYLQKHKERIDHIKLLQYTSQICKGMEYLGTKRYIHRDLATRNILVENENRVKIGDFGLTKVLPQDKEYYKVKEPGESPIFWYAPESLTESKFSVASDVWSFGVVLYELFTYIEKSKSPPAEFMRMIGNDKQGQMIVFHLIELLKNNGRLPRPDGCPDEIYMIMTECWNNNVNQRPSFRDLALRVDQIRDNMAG
Chain of TYK2 (P29597 whole entry): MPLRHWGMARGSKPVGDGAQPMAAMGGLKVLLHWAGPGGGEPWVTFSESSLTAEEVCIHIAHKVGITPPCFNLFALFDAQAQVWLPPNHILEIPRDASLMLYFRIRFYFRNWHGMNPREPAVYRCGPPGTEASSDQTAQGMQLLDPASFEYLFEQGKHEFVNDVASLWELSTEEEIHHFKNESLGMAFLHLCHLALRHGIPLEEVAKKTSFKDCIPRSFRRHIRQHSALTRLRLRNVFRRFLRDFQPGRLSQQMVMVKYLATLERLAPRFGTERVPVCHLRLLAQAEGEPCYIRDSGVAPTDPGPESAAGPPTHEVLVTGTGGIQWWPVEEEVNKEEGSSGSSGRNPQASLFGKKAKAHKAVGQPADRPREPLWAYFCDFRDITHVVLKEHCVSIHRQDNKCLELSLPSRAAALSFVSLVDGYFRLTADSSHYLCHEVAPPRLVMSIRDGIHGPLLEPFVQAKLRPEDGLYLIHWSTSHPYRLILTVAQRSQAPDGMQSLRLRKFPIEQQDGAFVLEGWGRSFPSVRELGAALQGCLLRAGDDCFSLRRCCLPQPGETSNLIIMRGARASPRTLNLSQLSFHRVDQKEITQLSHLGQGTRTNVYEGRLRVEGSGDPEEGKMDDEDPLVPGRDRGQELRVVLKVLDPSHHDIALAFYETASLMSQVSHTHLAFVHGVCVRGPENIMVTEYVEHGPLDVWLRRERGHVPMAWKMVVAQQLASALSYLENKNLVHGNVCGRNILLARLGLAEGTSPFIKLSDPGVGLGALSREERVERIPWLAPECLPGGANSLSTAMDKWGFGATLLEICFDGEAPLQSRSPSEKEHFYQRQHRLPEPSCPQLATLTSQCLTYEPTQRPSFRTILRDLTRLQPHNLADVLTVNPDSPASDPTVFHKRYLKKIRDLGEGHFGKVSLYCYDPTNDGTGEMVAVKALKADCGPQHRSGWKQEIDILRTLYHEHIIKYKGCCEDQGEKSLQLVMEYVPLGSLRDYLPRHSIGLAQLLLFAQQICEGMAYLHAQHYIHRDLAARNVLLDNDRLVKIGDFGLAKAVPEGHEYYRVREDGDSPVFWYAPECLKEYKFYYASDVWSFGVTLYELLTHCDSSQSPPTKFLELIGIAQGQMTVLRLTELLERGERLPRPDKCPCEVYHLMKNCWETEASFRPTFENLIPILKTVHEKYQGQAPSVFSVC
Chain of JAK1 (P23458 whole entry): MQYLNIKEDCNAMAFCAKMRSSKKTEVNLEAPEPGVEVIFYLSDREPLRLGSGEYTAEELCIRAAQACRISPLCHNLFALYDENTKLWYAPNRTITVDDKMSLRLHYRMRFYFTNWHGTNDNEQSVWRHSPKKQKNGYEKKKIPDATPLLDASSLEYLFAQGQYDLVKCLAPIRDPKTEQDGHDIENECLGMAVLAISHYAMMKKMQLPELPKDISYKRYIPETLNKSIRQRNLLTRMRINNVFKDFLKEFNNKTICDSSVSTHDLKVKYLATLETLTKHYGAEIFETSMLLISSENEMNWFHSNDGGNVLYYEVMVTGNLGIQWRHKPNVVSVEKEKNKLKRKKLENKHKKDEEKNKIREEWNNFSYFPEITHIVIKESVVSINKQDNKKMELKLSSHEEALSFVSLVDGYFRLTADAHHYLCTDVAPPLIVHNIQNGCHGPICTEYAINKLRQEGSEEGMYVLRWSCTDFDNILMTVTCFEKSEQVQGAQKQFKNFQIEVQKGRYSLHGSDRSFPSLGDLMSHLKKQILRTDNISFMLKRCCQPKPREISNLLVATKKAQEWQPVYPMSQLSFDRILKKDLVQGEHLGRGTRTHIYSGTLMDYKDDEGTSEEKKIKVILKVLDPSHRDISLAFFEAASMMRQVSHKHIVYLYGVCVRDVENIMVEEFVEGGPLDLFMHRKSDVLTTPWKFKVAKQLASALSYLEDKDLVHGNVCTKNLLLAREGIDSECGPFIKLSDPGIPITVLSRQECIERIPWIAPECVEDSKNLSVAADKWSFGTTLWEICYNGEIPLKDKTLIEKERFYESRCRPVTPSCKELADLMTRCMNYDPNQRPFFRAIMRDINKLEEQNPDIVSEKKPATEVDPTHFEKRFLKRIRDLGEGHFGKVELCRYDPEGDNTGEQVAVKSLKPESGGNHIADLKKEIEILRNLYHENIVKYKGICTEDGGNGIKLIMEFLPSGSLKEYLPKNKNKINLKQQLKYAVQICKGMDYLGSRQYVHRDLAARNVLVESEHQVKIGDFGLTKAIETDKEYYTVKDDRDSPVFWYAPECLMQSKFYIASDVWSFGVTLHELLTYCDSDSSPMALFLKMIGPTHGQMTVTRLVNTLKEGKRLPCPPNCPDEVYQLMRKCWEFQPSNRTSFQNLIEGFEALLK

| Compound | IC50 (TYK2) [nM] | IC50 (JAK2) [nM] | IC50 (JAK3) [nM] | IC50 (JAK1) [nM] |
| --- | --- | --- | --- | --- |
| Cn1ccc(Nc2ncc(Cl)c(-c3cnn(CC4(C#N)COC4)c3)n2)cc1=O [CN1/C═C\C(═C/C1═O)NC2═NC(═C] | < 1000 | < 10 | < 1000 | < 1000 |
| Cc1cnc(Nc2cccc(CCO)c2)nc1-c1cnn(CC2(CF)CC2)c1 [CC1═C(N═C(NC2═CC(═CC═C2)CCO)N═C1)C3═C[N]] | < 10 | < 10 | < 10 | < 10 |
| N#CCCn1cc(-c2nc(NC3CCNCC3(F)F)ncc2Cl)cn1 (stereo not shown) [FC1(F)CNCCC1NC2═NC(═C] | > 50000 | < 100000 | > 50000 | > 50000 |
| Cc1cc(Nc2ncc(Cl)c(-c3cnn(CCC#N)c3)n2)on1 [CC1═NOC(═C1)NC2═NC(═C] | < 100 | < 10 | < 1000 | < 100 |
| Cc1cnc(Nc2cc(CO)ns2)nc1-c1cnn(CC2(CF)CC2)c1 [CC1═C(N═C(NC2═CC(═NS2)CO)N═C1)C3═C[N]] | < 10 | < 10 | < 10 | < 10 |
| COc1cnc(Nc2cc(COC(=O)c3ccccc3)ns2)nc1-c1cnn(CC2(CF)CC2)c1 [COC1═C(N═C(NC2═CC(═NS2)COC] | < 100 | < 10 | < 100 | < 100 |
| COc1cc(Nc2ncc(C)c(-c3cnn(CC4(CF)CC4)c3)n2)sn1 [COC1═NSC(═C1)NC2═NC(═C] | < 10 | < 10 | < 100 | < 100 |
| N#CC1(Cn2cc(-c3nc(Nc4cnc5ccnn5c4)ncc3Cl)cn2)CCC1 [ClC1═C(N═C] | < 1000 | < 100 | < 1000 | < 100000 |
| Cc1cnc(Nc2cc(COC(=O)CCN(C)C)ns2)nc1-c1cnn(CC2(CF)CC2)c1 [CN(C)CCC(═O)OCC1═NSC(═C1)NC2═NC] | < 10 | < 10 | < 10 | < 100 |
| Cc1cnc(Nc2cc(COC(=O)CCN3CCOCC3)ns2)nc1-c1cnn(CC2(CF)CC2)c1 [CC1═C(N═C(NC2═CC(═NS2)COC] | < 10 | < 10 | < 10 | < 100 |
| Cc1cnc(Nc2ccc(S(C)(=O)=O)cc2)nc1-c1cnn(CC2(Cl)CC2)c1 [CC1═C(N═C(NC2═CC═C(C═C2)[S]] | < 10 | < 10 | < 10 | < 100 |
| Cc1cnc(Nc2ccc(S(C)(=O)=O)c(F)c2)nc1-c1cnn(CC2(Cl)CC2)c1 [CC1═C(N═C(NC2═CC═C(C(═C2)F)[S]] | < 10 | < 10 | < 100 | < 100 |
| Cc1cnc(NC2CCOCC2)nc1-c1cnn(CCC#N)c1 [CC1═C(N═C(NC2CCOCC2)N═C1)C3═C[N]] | > 50000 | < 100000 | > 50000 | < 100000 |
